Assay results published in patent publication US20080064665A1, “Combination approaches to cancer treatment” (priority 2006, published 2008).
Several values for one entry are separate records, joined by “and”; a condition that tells them apart may be missing. Equal entries are not always repeated.

Legend:
[1] = tested on: SiHa cervical cancer xenografts; assay: Excision assay of SiHa xenografts (clonogenic log cell kill); format: in vivo, CD-1 Fox^nu mice; conditions: SN 28343 91.2 mg/kg, SN 29303 375 mg/kg; for cell kill versus controls in excision assay (in words): SiHa human cervical tumor xenograft, docetaxel 65 mg/kg i.p.; for Log Cell Kill versus controls (Mean ± SEM): SiHa tumors excised 18 hours after treatment, docetaxel 65 mg/kg, i.p.
Method: As for Part 1 except for except where noted below.
(§1) Excess compound was discarded.
Date, body weights (used to adjust injection volume), tumor diameter, unique identifier (tail markings), body weight, and volume to be injected were recorded. Animals were dosed with the test articles i.p. following a defined treatment schedule:
18 hours after treatment the mice were culled by cervical dislocation and tumors removed by dissection, in a sterile laminar flow hood. Whole tumor weights were recorded. Tumors were minced using scissors or scalpels until a fine minceate was obtained, and up to 500 mg of minceate was transferred into a pre-tiered Falcon®14 ml test tube containing a sterile magnetic spin bar and re-weighed.
Samples were then incubated in 37° C. water bath for 30 min over a magnetic stirrer.
After incubation any undissociated material was allowed to settle for 1 minute. […] Pellets were re-suspended in 10 ml of medium. Cells/ml was determined using an electronic particle counter (Beckman Coulter Electronics, Z2 model). Samples were then diluted to 1×10^5cells/ml and 6-fold serial dilutions made down to 4.6×10^2cells/ml.
1 ml of each sample was plated in triplicate for each dilution into appropriately labelled Falcon® P-60 tissue culture dishes containing 4 ml of αMEM+10% FCS+PS.
Where possible, all plates were counted; those colonies counted=larger than 50 cells, confirmed with the light microscope. TMTC was recorded for those plates where there were too many colonies to count.
The criteria for selecting the best dilution to use for calculating plating efficiency (PE):
Higher dilution count>100 colonies (average); lower dilution 10-100 colonies, use PE from the dilution with fewer colonies.
Higher dilution count >100; lower dilution count <20, use average data from both.
Higher dilution count <100; lower dilution count <20, use PE from the dilution with more colonies.
Higher dilution count <100; lower dilution count >20, use average data from both. Note: For the 10^5 dilution, take as the “lower limit” colony count a total count of 30, (sum of all replicates).

[2] = tested on: A2780 human ovarian cancer xenografts; assay: Growth delay and survival of A2780 xenografts, PR-104 and docetaxel; format: in vivo, CD-1 nude mice
Method: (§2) End-point: After treatment, tumor size and body weights were measured regularly and mice were culled either when the average diameter of the tumor reached 15 mm (end-point), the tumor ulcerated or when the body weight change reached −15%. Experiment was ended and all remaining mice culled 120 days after treatment.
(§3) Analysis: End-points will be expressed as TTE50, Median RTV^4 and plotted in Kaplan-Meier Plots and analysed by Log Rank P statistical test.

[3] = tested on: H460 human lung cancer xenografts; assay: Growth delay and survival of H460 xenografts, PR-104, docetaxel and schedules thereof; format: in vivo, CD-1 nude mice
Method: Specific pathogen-free homozygous nu/nu (CD-1) nu/nu [NIH-III] (Charles River Laboratories, Wilmington, Mass.) were provided by the Animal Resources Unit (University of Auckland) at 7 to 9 weeks of age. Mice were housed in groups of 4-7 in a temperature-controlled room (22±2° C.) with a 12-hour light/dark cycle and were fed ad libitum water and a standard rodent diet (Harlan Teklad diet 2018i). All animals were uniquely identifiable by ear tag number. All animal protocols were approved by the Animal Ethics Committee of the University of Auckland (AEC approval C337).
A single cell suspension was prepared by trypsinisation (1× Trypsin/EDTA) from spinner culture, counted, and suspended in ∝MEM to give required cell concentration, as listed below. Mice were inoculated (100 μL) at a single subcutaneous site (right flank) using a 1 ml syringe with a 26 gauge needle.
Seven days post-inoculation, tumors were measured three times per week until they reached the treatment size (mean diameter 5.8-8.2 mm; average 7.0 mm). Mean tumor diameter was averaged from the longest diameter (length) multiplied by the perpendicular measurement (width). Tumor diameters were estimated when mean diameter was below 5 mm, and measured with electronic callipers when ≧5 mm.
Tumor volume was calculated using the formula:
where L=length and w=width in mm of the carcinoma.
as §1
Tumor bearing mice were assigned randomly to treatment groups when tumor diameter reached treatment size. Animals were rejected if xenografts show evidence of: (i) attachment to underlying muscle (due to risk of local invasion), (ii) signs of ulceration, or (iii) indolent tumor growth. Drug administration begins on the day of assignment. In general, 0.7-0.8 of the inoculated population is assigned to the experiment. Drug administration was undertaken as outlined above.
During and after treatment, tumor size and body weights were measured regularly. Animals were culled if (i) the average diameter of the tumor exceeds 15 mm (survival end-point), (ii) body weight loss exceeds 15% of pre-treatment value, (iii) there is evidence of prolonged or excessive morbidity, or (iv) tumor ulceration occurred. Each experiment was terminated at day 120 after treatment initiation.
Kaplan-Meier plots were constructed and median survival was calculated (TTE50). The statistical significance of any differences in overall survival between treatment groups and control was analysed by Log Rank P statistical test. The log-rank test was calculated using XLStat Life (Kovach Computing Services Ltd). The statistic significance in overall survival between each treatment group and control was determined by testing the null hypothesis that the survival curves are identical in the two populations.
The time for individual tumors to increase in volume by 4 fold relative to treatment day-1 (relative tumor volume×4−RTV^4) was recorded. The median RTV^4 is calculated for each group and the difference in RTV^4 between control and treatment groups is described as the Tumor Growth Delay (TGD) in days. RTV^4 values notmalise for any bias in tumor treatment volume on day-1. The RTV^4 of each treatment group is tested for statistical difference from control group by unpaired t-test and Mann Whitney U test (means and medians, respectively).
In circumstances where long-term controls (LTCs) occur, an RTV^4 value equal to the total duration of the experiment is assigned for the purposes of statistical analysis (usually 120 days). Where one or more LTC is present the median RTV^4 of each treatment group is tested for statistical difference from control group by Mann Whitney U test only. The statistical analysis was conducted at a p level of 0.05 (two-tailed). SigmaStat v3.10 was used for the statistical analysis of RTV^4 values. SigmaPlot v9 was used for all graph plots.
Weight loss nadirs (time independent maxima) were recorded for each treatment group.

[4] = tested on: SiHa human cervical cancer xenograft; assay: Growth delay and survival of SiHa xenograft, PR-104 and docetaxel; format: in vivo, Rag-1^null mice
From the text: Analysis: End-points will be expressed as TTE50, Median RTV^4 and plotted in Kaplan-Meier Plots and analysed by Log Rank P statistical test. Weight loss nadir will be compared between schedules.

[5] = tested on: 22RV1 androgen-resistant human prostate cancer xenograft; assay: Growth delay and survival of 22RV1 xenograft, PR-104 and docetaxel; format: in vivo, CD-1 nude mice
Method: as §2, §3

[6] = A2780 xenograft, PR-104 652 mg/kg, docetaxel 73 mg/kg, q2w×2
[7] = H460 xenograft, PR-104 652 mg/kg, docetaxel 73 mg/kg, q2w×2
[8] = Rag-1 mice, PR-104 652 mg/kg, docetaxel 73 mg/kg, q2w×2
[9] = 22RV1 xenograft, PR-104 652 mg/kg, docetaxel 73 mg/kg, q2w×2

In the case of `CS(=O)(=O)OCCN(CCBr)c1ccc([N+](=O)[O-])c(C(=O)NCCCOP(=O)(O)O)c1[N+](=O)[O-]` [SN 29303, 2-[2-bromoethyl)-2,4-dinitro-3-({[3-(phosphonooxy)propyl]amino}carbonyl) anilino]ethyl methanesulfonate], the “cell kill versus controls in excision assay (in words)” value [1] is reported as “moderate and significant cell killing” and the “Log Cell Kill versus controls (Mean ± SEM)” value [1] is reported as 0.770.

In the case of `CS(=O)(=O)OCCN(CCBr)c1c(C(=O)NCCOP(=O)(O)O)cc([N+](=O)[O-])cc1[N+](=O)[O-]` [PR-104, 2-[(2-bromoethyl)-2,4-dinitro-6-[[[2-(phosphonooxy)ethyl]amino]-carbonyl]anilino]ethyl methane sulfonate], the “Weight Loss Nadir (%)” value ([2]; A2780 xenograft, CD-1 nude mice, PR-104 652 mg/kg, docetaxel 73 mg/kg, i.p., q2w×2) is reported as −6.1±1.2%, the “LTC (long term control)” value ([2]; A2780 xenograft, 120 day experiment) is reported as 0 and the “Median RTV^4” value [2, 6] is reported as 8 days. The “TGD (relative gain in median RTV^4 versus control)” value [2, 6] was 78% and 77.8%, the TTE50 [2, 6] was 10 days and the “improvement in median tumor growth delay” value ([2]; A2780 xenograft, versus control) was 3.5 days. The “Gain TTE50 (improvement in median survival)” value (“Gain TTE50” for short) ([2]; A2780 xenograft, versus control (6 days)) was 4 days, the “activity against A2780 xenograft (in words)” value ([2]; based on tumor growth delay) was “no activity” and the “Weight Loss Nadir (%)” value ([3]; H460 xenograft, CD-1 nude mice, mean body weight loss nadir, PR-104 652 mg/kg, docetaxel 73 mg/kg, i.p., q2w×2) was −4.9 ± 1.0%. The Unscheduled deaths ([3]; H460 xenograft, female CD-1 nude mice, total dose PR-104 652 mg/kg, docetaxel 73 mg/kg, i.p., q2w×2) was 0, the “LTC (long term control, failed to reach end-point within duration of experiment)” value ([3]; H460 xenograft, 120 day experiment, PR-104 652 mg/kg, docetaxel 73 mg/kg, q2w×2) was 0 and the “Median RTV^4 (median time for tumor volume to increase 4-fold)” value [3, 7] was 23 days. For the same compound, the “TGD (tumor growth delay; relative gain in median RTV^4 versus control)” value [3, 7] was 187.5%, the “TTE50 (median time for tumor end-point to occur from day of treatment)” value ([3]; H460 xenograft, end-point >15 mm mean diameter, PR-104 652 mg/kg, docetaxel 73 mg/kg, q2w×2) was 29 days and the “Gain TTE50” value ([3]; H460 xenograft, versus control (11 days), PR-104 652 mg/kg, docetaxel 73 mg/kg, q2w×2) was 18 days. The “activity against H460 xenograft (in words)” value ([3]; tumor growth delay and survival end-points) was “significant single agent activity”, the “activity against SiHa xenograft (in words)” value ([4]; Rag-1 mice) was “modestly active” and the “LTC (long term control)” value ([4]; Rag-1 mice, 120 day experiment) was 0. For the same compound, the “Weight Loss Nadir (%)” value ([4]; Rag-1 mice, PR-104 652 mg/kg, docetaxel 73 mg/kg, i.p., q2w×2) was −2.2±1.2%, the “Median RTV^4” value [4, 8] was 16 days and the “TGD (relative gain in median RTV^4 versus control)” value [4, 8] was 33.3%. For the same compound, the “TTE50 (median time for tumor end-point to occur)” value [4, 8] was 25 days, the Day of death ([4]; Rag-1 mice, day of unscheduled death) was 14^B and the “improvement in tumor growth delay” value ([4]; Rag-1 mice, versus control) was 4 days. For the same compound, the “Gain TTE50” value ([4]; Rag-1 mice, versus control (17 days)) was 8 days, the Unscheduled deaths ([4]; female Rag-1 mice, total dose PR-104 652 mg/kg, docetaxel 73 mg/kg, i.p., q2w×2) was 1 and the “activity against 22RV1 xenograft (in words)” value ([5]; 22RV1 prostate xenograft model) was “modest single-agent antitumor activity”. The “Weight Loss Nadir (%)” value ([5]; 22RV1 xenograft, CD-1 nude mice, PR-104 652 mg/kg, docetaxel 73 mg/kg, i.p., q2w×2) was −2.1±0.5%, the “LTC (long term control)” value ([5]; 22RV1 xenograft, 120 day experiment) was 0 and the “Median RTV^4” value [5, 9] was 23 days. For the same compound, the “TGD (relative gain in median RTV^4 versus control; TGI in text)” value [5, 9] was 156%, the TTE50 [5, 9] was 26.5 days and the “median tumor growth delay” value ([5]; 22RV1 xenograft, versus control) was 14 days. For the same compound, the “Gain TTE50” value ([5]; 22RV1 xenograft, versus control (9.5 days)) was 17 days.

`O=C(NCCOP(=O)(O)O)c1cc([N+](=O)[O-])cc([N+](=O)[O-])c1N(CCBr)CCBr` [SN 28343, 2-[Bis(2-bromoethyl)amino]-N-(2-hydroxyethyl)-3,5-dinitrobenzamide phosphate ester] was tested, and the “cell kill versus controls in excision assay (in words)” value [1] was “moderate and significant cell killing” and the “Log Cell Kill versus controls (Mean ± SEM)” value [1] was 0.821.
